For the assay, the system named is HEK293. Nature of the assay: Cytotoxicity against HEK293 cells by MTT assay. Format: functional, cell-based. As to conditions: Homo sapiens. For orientation: Tetrazolium dyes change colour on reduction, which living cells bring about.

Regarding `CC1=CC2=C(C)C3(CC3)[C@@](C)(O)C(=O)C2=C1` [ACYLFULVENE], it took 1400 nM to reach half-maximal inhibition (IC50). For `CC1=C(CO)C2=C(C)C3(CC3)[C@@](C)(O)C(=O)C2=C1` [IROFULVEN], the IC50 (in general, the concentration that inhibits the measured activity by half) is 1200 nM.

Source of the values: ChEMBL document CHEMBL1146070, “Investigating the role of stereochemistry in the activity of anticancer acylfulvenes: synthesis, reductase-mediated bioactivation, and cellular toxicity” (J Med Chem, 2006).
